Laboratory results from the Biogen ADME set (Fang et al. 2023).
Values after ≈ are worked out from the molar mass of the structure shown.

Conditions: for aqueous solubility: pH 6.8

Question: Which results are given for `CCOC(=O)c1cc2ccccc2n1CC(=O)c1ccc(F)cc1`?
Answer: MDR1-MDCK efflux ratio: 0.662; intrinsic clearance, human liver microsomes: 756 mL/min/kg; intrinsic clearance, rat liver microsomes: 1890 mL/min/kg; aqueous solubility: 6.56 µg/mL (≈ 20.2 µM)

Question: With `COc1ccc2c(c1)C(=O)N(c1ccccc1OC)C(=O)C2` as the compound, how does the aqueous solubility read?
Answer: 40.3 µg/mL (≈ 135 µM)

Question: Which MDR1-MDCK efflux ratio does the source give for `O=C(CN1CCSC1=O)Nc1ccccc1F` here?
Answer: 0.739

Question: And the intrinsic clearance, human liver microsomes?
Answer: ≤ 4.74 mL/min/kg

Question: And the intrinsic clearance, rat liver microsomes?
Answer: ≤ 10.7 mL/min/kg

Question: And the aqueous solubility?
Answer: 31.6 µg/mL (≈ 124 µM)

Question: What does the source list for `O=C(O)/C=C/c1ccc(Cn2ccnc2)cc1`?
Answer: MDR1-MDCK efflux ratio: 3; intrinsic clearance, human liver microsomes: ≤ 4.74 mL/min/kg; intrinsic clearance, rat liver microsomes: ≤ 10.7 mL/min/kg; aqueous solubility: 50.6 µg/mL (≈ 222 µM)

Question: For `O=C(O)c1csc(Cc2ccc(Cl)cc2)n1`, which MDR1-MDCK efflux ratio is on record?
Answer: 0.4

Question: And the intrinsic clearance, human liver microsomes?
Answer: ≤ 4.74 mL/min/kg

Question: What about the intrinsic clearance, rat liver microsomes of the same compound?
Answer: ≤ 10.7 mL/min/kg

Question: With `FC(F)(F)c1ccc(Nc2nc3cc(Oc4ccnc(-c5ncc(C(F)(F)F)[nH]5)c4)ccc3[nH]2)cc1` as the compound, how does the MDR1-MDCK efflux ratio read?
Answer: 0.86

Question: And the aqueous solubility?
Answer: 0.35 µg/mL (≈ 0.694 µM)

Question: With `Cc1cccc(CNc2cccc3c2CCN(S(C)(=O)=O)C3)c1` as the compound, how does the MDR1-MDCK efflux ratio read?
Answer: 0.65

Question: And the aqueous solubility?
Answer: 0.35 µg/mL (≈ 1.06 µM)

Question: With `Cc1nc(O)c(Cl)c(N(C)CC2CCN(C)CC2)n1` as the compound, how does the MDR1-MDCK efflux ratio read?
Answer: 7.64

Question: What about the intrinsic clearance, human liver microsomes of the same compound?
Answer: ≤ 4.74 mL/min/kg

Question: And the intrinsic clearance, rat liver microsomes?
Answer: ≤ 10.7 mL/min/kg

Question: What does the source list for `Cc1cc2ccccc2n1CC(=O)N(C)Cc1cnn(C)c1`?
Answer: MDR1-MDCK efflux ratio: 2.14; aqueous solubility: 47.5 µg/mL (≈ 160 µM)

Question: With `Cc1ncn(Cc2noc(-c3ccccc3O)n2)c1C` as the compound, how does the MDR1-MDCK efflux ratio read?
Answer: 0.643

Question: And the intrinsic clearance, human liver microsomes?
Answer: 19.9 mL/min/kg

Question: And the intrinsic clearance, rat liver microsomes?
Answer: 483 mL/min/kg

Question: With `CCNc1ccnc(N(C)Cc2nc3ccccc3n2C)n1` as the compound, how does the MDR1-MDCK efflux ratio read?
Answer: 1.28

Question: What about the intrinsic clearance, human liver microsomes of the same compound?
Answer: 29.5 mL/min/kg

Question: What about the intrinsic clearance, rat liver microsomes of the same compound?
Answer: 434 mL/min/kg

Question: What about the aqueous solubility of the same compound?
Answer: 37 µg/mL (≈ 125 µM)

Question: For `Cn1c(=O)oc2cc(NC(C3CC3)C3CC3)ccc21`, which intrinsic clearance, human liver microsomes is on record?
Answer: 13.6 mL/min/kg

Question: What about the intrinsic clearance, rat liver microsomes of the same compound?
Answer: 186 mL/min/kg

Question: With `CS(=O)(=O)Nc1ccccc1-c1ccncc1` as the compound, how does the MDR1-MDCK efflux ratio read?
Answer: 1.27

Question: And the intrinsic clearance, human liver microsomes?
Answer: ≤ 4.74 mL/min/kg

Question: What about the intrinsic clearance, rat liver microsomes of the same compound?
Answer: 100 mL/min/kg

Question: Which results are given for `C=CC(=O)N1C[C@H](Nc2ncnc3[nH]ccc23)CC[C@@H]1C`?
Answer: MDR1-MDCK efflux ratio: 65.6; fraction unbound, human plasma: 0.673; fraction unbound, rat plasma: 0.557; intrinsic clearance, human liver microsomes: ≤ 4.74 mL/min/kg; intrinsic clearance, rat liver microsomes: 27.3 mL/min/kg; aqueous solubility: 53.7 µg/mL (≈ 188 µM)

Question: For `CC(C)(C)OC(=O)N1CCCN1C(=O)c1cc2cc(Cl)ccc2[nH]1`, which intrinsic clearance, human liver microsomes is on record?
Answer: 47.2 mL/min/kg

Question: What about the intrinsic clearance, rat liver microsomes of the same compound?
Answer: 687 mL/min/kg

Question: Which intrinsic clearance, human liver microsomes does the source give for `CSC[C@H]1CN(Cc2c[nH]c3c(N)ncnc23)C[C@@H]1O` here?
Answer: ≤ 4.74 mL/min/kg

Question: What about the intrinsic clearance, rat liver microsomes of the same compound?
Answer: ≤ 10.7 mL/min/kg

Question: Which MDR1-MDCK efflux ratio does the source give for `CNCc1cc(N(C)C)nc(C2CCCN2C(=O)c2oc3ccc(Cl)cc3c2C)n1` (stereo not drawn) here?
Answer: 117

Question: And the intrinsic clearance, human liver microsomes?
Answer: 44.7 mL/min/kg

Question: What about the intrinsic clearance, rat liver microsomes of the same compound?
Answer: 840 mL/min/kg

Question: What does the source list for `FC(F)(F)c1nc(Nc2ccc(-n3cnnn3)cc2)c2ccccc2n1`?
Answer: MDR1-MDCK efflux ratio: 1.13; intrinsic clearance, human liver microsomes: ≤ 4.74 mL/min/kg; intrinsic clearance, rat liver microsomes: ≤ 10.7 mL/min/kg; aqueous solubility: 1.15 µg/mL (≈ 3.22 µM)

Question: For `N#Cc1cc(N2CC(CO)C2)nc2ccc(Cl)cc12`, which intrinsic clearance, human liver microsomes is on record?
Answer: 68.9 mL/min/kg

Question: What about the intrinsic clearance, rat liver microsomes of the same compound?
Answer: 121 mL/min/kg

Question: Which MDR1-MDCK efflux ratio does the source give for `O=c1c2ccccc2nc2n1CCN(Cc1ccc(F)cc1)CC2` here?
Answer: 0.471

Question: What about the intrinsic clearance, human liver microsomes of the same compound?
Answer: 37.1 mL/min/kg

Question: What about the intrinsic clearance, rat liver microsomes of the same compound?
Answer: 565 mL/min/kg

Question: Which MDR1-MDCK efflux ratio does the source give for `Cc1cc(C)n(-c2ccc(CNC(=O)c3ccc4c(c3)CCO4)cn2)n1` here?
Answer: 0.769

Question: What about the intrinsic clearance, human liver microsomes of the same compound?
Answer: 11.4 mL/min/kg

Question: What about the intrinsic clearance, rat liver microsomes of the same compound?
Answer: 106 mL/min/kg

Question: And the aqueous solubility?
Answer: 3.86 µg/mL (≈ 11.1 µM)

Question: Which results are given for `O=C(c1cccc(CNc2ccc3nccnc3n2)c1)N1CCCCC1`?
Answer: MDR1-MDCK efflux ratio: 37.4; intrinsic clearance, human liver microsomes: 13.9 mL/min/kg; intrinsic clearance, rat liver microsomes: 146 mL/min/kg; aqueous solubility: 56.3 µg/mL (≈ 162 µM)

Question: With `COc1ccc(-c2noc([C@@H]3CCCN3Cc3ccccc3)n2)cn1` as the compound, how does the MDR1-MDCK efflux ratio read?
Answer: 0.592

Question: And the intrinsic clearance, human liver microsomes?
Answer: 89.6 mL/min/kg

Question: What about the intrinsic clearance, rat liver microsomes of the same compound?
Answer: 1150 mL/min/kg

Question: What about the aqueous solubility of the same compound?
Answer: 25.5 µg/mL (≈ 75.8 µM)

Question: For `COC(=O)c1ccc2c(c1)CCN2S(=O)(=O)c1ccc(Cl)c(C(F)(F)F)c1`, which aqueous solubility is on record?
Answer: 0.9 µg/mL (≈ 2.14 µM)

Question: What does the source list for `Fc1ccc(-n2cc(/C=C/c3ccnnc3)nn2)cc1Cl`?
Answer: MDR1-MDCK efflux ratio: 0.642; aqueous solubility: 0.27 µg/mL (≈ 0.895 µM)

Question: What does the source list for `CCOCC(=O)N1CCC2(CCc3ccccc3O2)CC1`?
Answer: MDR1-MDCK efflux ratio: 0.732; intrinsic clearance, human liver microsomes: 10.3 mL/min/kg; intrinsic clearance, rat liver microsomes: 818 mL/min/kg; aqueous solubility: 34.1 µg/mL (≈ 118 µM)

Question: For `CN1C(N)=N[C@](C)(c2cc(NC(=O)c3ccc(F)cn3)ccc2F)CS1(=O)=O`, which MDR1-MDCK efflux ratio is on record?
Answer: 93.4

Question: And the fraction unbound, human plasma?
Answer: 0.363

Question: And the fraction unbound, rat plasma?
Answer: 0.31

Question: What about the intrinsic clearance, human liver microsomes of the same compound?
Answer: ≤ 4.74 mL/min/kg

Question: What about the intrinsic clearance, rat liver microsomes of the same compound?
Answer: 82.3 mL/min/kg

Question: What does the source list for `Cc1cccc(NC(=O)CN(C)Cc2nc3ccc(Cl)cc3c(=O)[nH]2)c1C`?
Answer: MDR1-MDCK efflux ratio: 12.5; intrinsic clearance, human liver microsomes: 101 mL/min/kg; intrinsic clearance, rat liver microsomes: 1270 mL/min/kg

Question: With `CN(CC(=O)NC1(C#N)CCCCC1)c1cccc(C#N)c1` as the compound, how does the MDR1-MDCK efflux ratio read?
Answer: 10.4

Question: What about the intrinsic clearance, human liver microsomes of the same compound?
Answer: 85.8 mL/min/kg

Question: And the intrinsic clearance, rat liver microsomes?
Answer: 701 mL/min/kg

Question: What about the aqueous solubility of the same compound?
Answer: 20.3 µg/mL (≈ 68.4 µM)

Question: Which MDR1-MDCK efflux ratio does the source give for `NS(=O)(=O)N1CCN(Cc2c(F)cccc2N2CCCC2)CC1` here?
Answer: 1.75

Question: And the intrinsic clearance, human liver microsomes?
Answer: 24.2 mL/min/kg

Question: And the intrinsic clearance, rat liver microsomes?
Answer: 1280 mL/min/kg
